Columns and labels:
NDH-2B [1] = molecular target: T1, NDH-2B (Staphylococcus aureus, UniProt Q2FZW0); assay: tryptophan fluorescence quenching titration and STD-NMR; KM […] in steady-state kinetics; assay type: binding
T1 construct: gene SAOUHSC_00875
T1 sequence (Q2FZW0 1-354): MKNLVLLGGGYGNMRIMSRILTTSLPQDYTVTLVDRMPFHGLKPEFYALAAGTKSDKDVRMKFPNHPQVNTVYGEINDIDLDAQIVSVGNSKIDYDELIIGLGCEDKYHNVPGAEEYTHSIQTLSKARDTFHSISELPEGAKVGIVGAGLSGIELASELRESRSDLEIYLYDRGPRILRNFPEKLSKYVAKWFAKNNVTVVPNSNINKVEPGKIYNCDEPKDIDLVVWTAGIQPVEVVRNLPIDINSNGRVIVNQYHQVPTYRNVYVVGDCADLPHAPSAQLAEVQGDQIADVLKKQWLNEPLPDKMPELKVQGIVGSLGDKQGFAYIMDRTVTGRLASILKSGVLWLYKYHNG

NDH-2B [2] = molecular target: T1, NDH-2B; assay: co-purified flavin identified by HPLC and UV-visible spectrum; assay type: binding
NDH-2B [3] = molecular target: T1, NDH-2B; assay: steady-state NADPH:DMN oxidoreductase inhibition (Ki app); also tryptophan fluorescence quenching titration; assay type: biochemical
NDH-2B [4] = molecular target: T1, NDH-2B; assay: NADH:DMN oxidoreductase specific activity of purified enzyme; assay type: biochemical
NDH-2A = molecular target: T2, NDH-2A (Staphylococcus aureus, UniProt Q2FZV7); assay: NADH:DMN oxidoreductase specific activity of purified enzyme, pH […]; assay type: biochemical
T2 construct: gene SAOUHSC_00878

NDH-2B [5] = molecular target: T1, NDH-2B; assay: tryptophan fluorescence quenching titration and STD-NMR; assay type: binding
NDH-2B [6] = molecular target: T1, NDH-2B; assay: tryptophan fluorescence quenching titration; assay type: binding
purified protein = substrate: NC(=O)C1=CN([C@@H]2O[C@H](COP(=O)(O)OP(=O)(O)OC[C@H]3O[C@@H](n4cnc5c(N)ncnc54)[C@H](OP(=O)(O)O)[C@@H]3O)[C@@H](O)[C@H]2O)C=CC1; assay: purified protein; assay type: biochemical, Staphylococcus aureus; settings: FAD binding site different from that of the quinone; pH 7.0

T2 sequence (Q2FZV7 whole entry): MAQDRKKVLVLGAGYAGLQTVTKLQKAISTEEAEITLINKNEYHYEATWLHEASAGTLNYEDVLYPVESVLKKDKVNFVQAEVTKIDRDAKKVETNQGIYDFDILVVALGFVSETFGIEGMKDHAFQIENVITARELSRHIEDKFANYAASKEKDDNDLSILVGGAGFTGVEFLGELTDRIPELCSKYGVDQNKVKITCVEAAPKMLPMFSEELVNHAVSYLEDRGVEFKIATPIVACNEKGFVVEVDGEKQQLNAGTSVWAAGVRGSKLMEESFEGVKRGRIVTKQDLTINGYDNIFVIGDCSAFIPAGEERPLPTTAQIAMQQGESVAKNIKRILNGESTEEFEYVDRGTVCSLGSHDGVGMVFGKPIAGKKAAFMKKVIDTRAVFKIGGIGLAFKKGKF

Work on `CC1=C(C)C(=O)c2ccccc2C1=O` [DMN, 2,3-dimethyl-1,4-naphthoquinone] yielded a Kd (NDH-2B [1]) of 160 ± 35 µM.

With `Cc1cc2nc3c(=O)[nH]c(=O)nc-3n(C[C@H](O)[C@H](O)[C@H](O)COP(=O)(O)OP(=O)(O)OC[C@H]3O[C@@H](n4cnc5c(N)ncnc54)[C@H](O)[C@@H]3O)c2cc1C` [FAD, flavin adenine dinucleotide] the “co-purified flavin identified by HPLC and UV-visible spectrum” value (NDH-2B [2]) was “Subsequent HPLC analysis confirmed the flavin as flavin adenine dinucleotide (FAD)”.

Work on `CCCCCCCc1cc(O)c2ccccc2[n+]1[O-]` [HQNO, 2-n-heptyl-4-hydroxyquinoline-N-oxide] yielded a Ki (NDH-2B [3]) of 6.4 ± 1.25 µM.

For `NC(=O)C1=CN([C@@H]2O[C@H](COP(=O)(O)OP(=O)(O)OC[C@H]3O[C@@H](n4cnc5c(N)ncnc54)[C@H](O)[C@@H]3O)[C@@H](O)[C@H]2O)C=CC1` [NADH], the NDH-2B (NDH-2B [4]) was 34.03 ± 0.86 µmol/min/mg and the NDH-2A (NDH-2A) was 122.10 ± 18.30 µmol/min/mg.

`NC(=O)c1ccc[n+]([C@@H]2O[C@H](COP(=O)(O)OP(=O)(O)OC[C@H]3O[C@@H](n4cnc5c(N)ncnc54)[C@H](OP(=O)(O)O)[C@@H]3O)[C@@H](O)[C@H]2O)c1` [NADP^+] showed a Kd (NDH-2B [5]) of 182 ± 29 µM.

`NC(=O)c1ccc[n+]([C@@H]2O[C@H](COP(=O)([O-])OP(=O)(O)OC[C@H]3O[C@@H](n4cnc5c(N)ncnc54)[C@H](O)[C@@H]3O)[C@@H](O)[C@H]2O)c1` [NAD^+] was tested, and the Kd (NDH-2B [6]) was 170 ± 7.6 µM.

B1: NDH-2B (Staphylococcus aureus subsp. aureus NCTC 8325) (protein)
chain: MKNLVLLGGGYGNMRIMSRILTTSLPQDYTVTLVDRMPFHGLKPEFYALAAGTKSDKDVRMKFPNHPQVNTVYGEINDIDLDAQIVSVGNSKIDYDELIIGLGCEDKYHNVPGAEEYTHSIQTLSKARDTFHSISELPEGAKVGIVGAGLSGIELASELRESRSDLEIYLYDRGPRILRNFPEKLSKYVAKWFAKNNVTVVPNSNINKVEPGKIYNCDEPKDIDLVVWTAGIQPVEVVRNLPIDINSNGRVIVNQYHQVPTYRNVYVVGDCADLPHAPSAQLAEVQGDQIADVLKKQWLNEPLPDKMPELKVQGIVGSLGDKQGFAYIMDRTVTGRLASILKSGVLWLYKYHNG
With B1 the Km (purified protein) was 80.4 ± 7.7 µM.

Reference: article PMC11302666, “The two alternative NADH:quinone oxidoreductases from Staphylococcus aureus: two players with different molecular and cellular roles” (Microbiology Spectrum, 2024)
